# Data reported in article PMC9166630, “SAR Probing of KX2-391 Provided Analogues With Juxtaposed Activity Profile Against Major Oncogenic Kinases” (Frontiers in Oncology, 2022).
# Several values for one entry are separate records, joined by “and”; a condition that tells them apart may be missing. Identical values can stand only once.
# Tests used:
# HL60 cells = assay: Apoptosis detection (Annexin V-FITC/PI); format: cell-based, human; details: HL60, 7 µM, 48 h
# Experimental: Integral to the cell cycle analysis of 4e, we determined the population of cells undergoing apoptosis, or programmed cell death, by Annexin V-FITC/PI double staining in HL60 cells. Two different concentrations of 4e (3.5 µM and 7 µM) were selected for treatment.
# Total apoptosis was detected using Annexin V-FITC Apoptosis Detection kit (Cell Signaling Technology, Danvers, MA, USA) as per the protocol. Briefly, 1.5 x 10^5 of HL60 cells were plated in a 6-well plate with appropriate compound concentrations at 37°C for 48 h. After the incubation completed, cells were washed twice with ice-cold PBS (1X). Subsequently cells were stained with Annexin V-FITC/PI and incubated in the dark on ice for 20 min. After washing with PBS wash, the cells were analyzed by acquiring a minimum total of 5000 events using BD FACSAria III flow cytometer (BD Biosciences, USA).
# JNK1/2/3 = assay: Human phosphokinase array, JNK1/2/3; format: cell-based
# Text: (§1) The kinome tree representation (Figure 7C), which was generated by raising the Kinase Score cut-off to >1.2, confirmed that, unlike tirbanibulin and our prototype molecule KX1-136, 4e’s effects were more observable on kinases other than the Src family such as the Eph and TEC families. […] Therefore, we screened compound 4e using the Human Phospho-Kinase Array® kit from R&D systems (Minneapolis, MN, USA). In this system, 35 phosphorylated YK and serine-threonine kinase (STK) enzymes in the untreated (control) and treated (test) HL60 cell lysates were captured on nitrocellulose membrane, pre-spotted with phosphokinase-specific capture antibodies, and then visualized by detection antibody cocktails (Figure 8). The difference in the spot intensity between untreated (control) and treated cells is proportional to change in the amount of the phosphorylated protein induced by 4e.
# (§2) The phosphorylation profile of 48 kinases was performed using the Proteome Profiler Human Phospho-Kinase Antibody Array Kit by R&D Systems (Minneapolis, MN, USA) according to the protocol. Briefly, the total cellular protein was extracted using the Lysis buffer and was quantified using Bio-Rad DC Protein Assay kit (Hercules, CA, USA). Nitrocellulose membrane set (A&B), pre-spotted with kinase-specific capture antibodies, were first blocked with Array Buffer-1 at RT for 30 min on a rocking platform shaker. Approximately 600 µg of protein concentrate was diluted in the buffer provided and was added onto the membrane set, and the membranes were incubated overnight at 4°C in an 8-well plate. Subsequently, membranes were washed with Wash Buffer and incubated with appropriate Detection Antibody cocktails for 2 h at RT. Streptavadin-HRP (1:2000) was added onto membranes and incubated for 30 min at RT. Membranes were washed, and Chemiluminescent Detection Reagents 1&2 were applied in equal volumes for detection. The signals were detected on C-DiGit®Blot Scanner (LI-COR, Odyssey Imaging Systems, Lincoln, Nebraska, USA) using Image Studio 5.0 software.
# C-Jun = assay: Human phosphokinase array, c-Jun; format: cell-based
# Text: as §1, §2
# JAK1~b = biological target: T1, JAK1~b (Homo sapiens, UniProt P23458); assay: PamChip tyrosine kinase microarray, JAK1~b; format: biochemical; details: 4e 0.1 µM, HL60 lysate
# T1 construct: The compound 4e was spiked into HL60 cell lysate at different concentrations; endogenous in cells; host or cells: HL60 cell lysate
# Experimental: The changes in kinase activities induced by treatment with 4e were monitored within the HL60 cell lines using PamGene’s (Hertogenbosch, Netherlands) PamChip® peptide microarray profiler, which quantifies the activities of 144 tyrosine kinases (YK) ([29], [30]) (Figure 7). Results are provided as a log fold change (LFC) heatmap and Mean Kinase Statistic. From the LFC it is apparent that compound 4e, at a concentration of 0.1 µM, induced sizable changes to the activity of several kinases within the cell signaling YK profile (Figure 7A).
# An Upstream Kinase tool was used to generate a putative list of kinases responsible for phosphorylating the phospho-sites on the PamChip (Figure 7B) ([31]). It is an interpretation and is highly dependent on the contents of the underlying phosphorylation databases. A Kinase Score was used for ranking kinases based on their significance and specificity in terms of the set of peptides used for the corresponding kinase. Kinase Statistics indicates the overall change of the peptide set that represents the kinase. Kinase statistics value <0 indicates lower kinase activity in the compound spiked lysate and vice versa ([32], [33]). Table 5 lists the 20 most changed kinases within treated HL60 cell lysates by 0.1 μM 4e, ranked according to their Kinase Score.
# The compound 4e was spiked into HL60 cell lysate at different concentrations (0.001, 0.01, 0.1, 1, 10 and 50 μM). In addition, DMSO was also spiked in HL60 lysate at low concentration (2% v/v) as control. Samples were profiled on PamGene’s Tyrosine Kinase (PTK) arrays in technical replicates, covering a total of 196 phosphorylation sites. Frozen HL60 cultured cell pellet was sent to PamGene. At PamGene, cells were lysed using a lysis buffer and proteases inhibitors cocktail. Protein concentration was measured using standard Bradford assay as per PamGene SOPs. These lysates were further used for generating the PTK activity profiles. For spiking, 4e was received as powder form and dissolved in DMSO at PamGene facility followed by storing at -20°C in small aliquots. PamGene used its in-house bioinformatics toolbox in combination with other methods to generate hypotheses of signaling pathways.
# T1 sequence (P23458 whole entry): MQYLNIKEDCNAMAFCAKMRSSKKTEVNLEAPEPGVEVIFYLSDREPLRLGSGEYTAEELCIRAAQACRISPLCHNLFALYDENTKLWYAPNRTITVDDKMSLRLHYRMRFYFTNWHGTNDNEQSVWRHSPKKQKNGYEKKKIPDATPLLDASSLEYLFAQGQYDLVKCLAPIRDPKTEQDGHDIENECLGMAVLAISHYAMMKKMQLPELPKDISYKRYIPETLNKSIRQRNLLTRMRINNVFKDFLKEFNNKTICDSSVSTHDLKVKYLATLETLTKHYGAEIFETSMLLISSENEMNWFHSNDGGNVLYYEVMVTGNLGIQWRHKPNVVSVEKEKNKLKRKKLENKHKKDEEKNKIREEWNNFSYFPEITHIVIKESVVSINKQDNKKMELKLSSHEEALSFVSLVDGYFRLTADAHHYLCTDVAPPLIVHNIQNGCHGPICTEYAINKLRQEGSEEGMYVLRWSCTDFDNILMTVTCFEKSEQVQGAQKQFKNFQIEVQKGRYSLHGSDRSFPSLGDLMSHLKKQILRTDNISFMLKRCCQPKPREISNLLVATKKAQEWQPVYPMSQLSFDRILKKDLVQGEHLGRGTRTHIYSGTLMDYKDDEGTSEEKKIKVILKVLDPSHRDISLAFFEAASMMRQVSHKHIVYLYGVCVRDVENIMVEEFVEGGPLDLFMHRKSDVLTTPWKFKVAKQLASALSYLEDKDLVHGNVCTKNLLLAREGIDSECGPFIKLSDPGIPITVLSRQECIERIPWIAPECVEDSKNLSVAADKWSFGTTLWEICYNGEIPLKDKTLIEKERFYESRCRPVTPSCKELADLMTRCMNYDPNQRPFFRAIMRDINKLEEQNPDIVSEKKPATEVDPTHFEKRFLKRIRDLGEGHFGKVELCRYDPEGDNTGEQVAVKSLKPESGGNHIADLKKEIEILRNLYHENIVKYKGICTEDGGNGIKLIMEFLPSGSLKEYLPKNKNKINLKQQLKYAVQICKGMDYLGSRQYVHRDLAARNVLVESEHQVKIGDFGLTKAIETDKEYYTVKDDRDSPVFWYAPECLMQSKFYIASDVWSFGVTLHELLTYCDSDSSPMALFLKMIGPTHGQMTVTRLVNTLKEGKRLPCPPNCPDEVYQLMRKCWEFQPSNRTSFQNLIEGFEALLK
smiles,measurement,setting,value
"O=C(Cc1ccc(NC(=O)c2cccc(Cl)c2)cc1)NCc1ccccc1 [Compound 4e, N-(4-(2-(benzylamino)-2-oxoethyl)phenyl)-3-chlorobenzamide]",percentage of apoptotic cells,HL60 cells,increased significantly
same,"phosphokinase signal after 4e exposure, JNK1/2/3","JNK1/2/3; HL60 cell lysate, treated",20.91
same,"% Change, JNK1/2/3",JNK1/2/3; treated vs untreated HL60,-50.61%
same,"Change in Signal, JNK1/2/3",JNK1/2/3; treated vs untreated HL60,-21.43
same,"phosphokinase signal after 4e exposure, C-Jun","C-Jun; HL60 cell lysate, treated",1811.31
same,"Change in Signal, C-Jun",C-Jun; treated vs untreated HL60,829.81
same,"% Change, C-Jun","C-Jun; treated vs untreated HL60, Ser63 phosphorylation increase",84% and 84.55%
same,Mean Final Score,JAK1~b,1.3907
same,Mean Kinase Statistic,JAK1~b,-0.5828
same,Mean Significance Score,JAK1~b,0.8736
same,Mean Specificity Score,JAK1~b,0.5171
